Here are results for nine molecules from article PMC4957076, “Shared mechanism of teratogenicity of anti-angiogenic drugs identified in the chicken embryo model” (Scientific Reports, 2016).

One data set deals with Rat. The following applies: cited from earlier work; for Systemic exposure (AUC) compared to human exposure: exposure at which defects were produced.
Another data set concerns Rabbit. The settings on record: cited from earlier work; for Systemic exposure (AUC) compared to human exposure: exposure at which defects were produced.
The next data set has as its system Mouse. The following applies: cited from earlier work.
Data set [1] relates to chicken embryos. The settings on record: for survival rate: 48 hours post drug application. On the procedure:
We then administered the compounds to developing chicken embryos to observe any teratogenic effects. […] At 48 hours post drug application both the survival rate and the incidence of defects were analyzed. A range of concentrations was tested to determine the effects and optimal concentration that was not 100% lethal.
Fertilized white leghorn chicken embryos purchased from Henry Stewart Ltd. (Herefordshire, United Kingdom) were maintained in an incubator as described previously. At Hamburger and Hamilton stage 18–20 (E2.5-3)[54] the eggs were windowed and the embryos were prepared for drug exposure. To establish a dose response the drugs were applied once to the embryos and growth was monitored as described previously. In a second set of experiments, filter paper squares were cut 100 μm × 100 μm and soaked in the compound of interest for 10 minutes. While the filter paper squares absorbed the solution, embryonic membranes were removed and the sponge was then placed onto the limb bud. The eggs were sealed with tape and returned to an incubator. The embryos were checked daily for developmental defects and to ensure the filter paper squares remained in place. Control embryos were treated with 100 μL PBS with 0.1% DMSO. Embryos were removed from the eggs and fixed in 5% TCA at 4 degrees for 24 hours. Embryos were then washed in alcian blue for 8 hours, and placed in acid ethanol over night before being dehydrated in 100% ethanol for three one hour treatments. The tissue was then cleared in methyl salicylate. Cartilage was imaged and subsequently measured using a graticule scale and ImageJ. A minimum of 8 embryos was used per drug, per concentration. All animal work was licensed and carried out in accordance with and with approval of UK Home Office and Institutional ethical and welfare guidelines.

The conditions of data set [2]: human; cited from earlier work.
Data set [3] relates to fli1:EGFP zebrafish embryos. The data set is described as follows: fli1:EGFP zebrafish embryo exposure: survival and intersegmental vessel development. Format: in vivo. The following applies: for survival: 24 hours after exposure; for relative potency in reducing vessel outgrowth: concentration gradient, within 24 hours of drug exposure. On the procedure: We then examined the extent and nature of the anti-angiogenic effects of the compounds using transgenic fli1:EGFP zebrafish embryos. The vasculature of these fish is tagged with EGFP and the transparency of the zebrafish allows for visualization of the forming blood vessels and any effect of anti-cancer drugs on their development over time (Fig. 4). A known anti-angiogenic and teratogenic compound (CPS49) was screened alongside the drugs as a positive control at 10 μg/mL (30 μM), a previously established anti-angiogenic concentration.
fli1:EGFP zebrafish were obtained from the Zebrafish international Resource Centre[29] and maintained in an approved aquarium habitat at 28 °C. At 24 hours post fertilization (hpf) the embryos were checked for GFP expression using a fluorescent microscope and manually dechorionated with forceps, exposed to either a vehicle control, or an anti-angiogenic anti-cancer compound (at 24 hpf) for 24 hours and imaged at 48 hpf. At this point the embryos were anaesthetized in 0.1% tricaine and the length and number of intersegmental vessels (ISV) were quantified as previously described. A minimum of 10 embryos were screened per drug, per concentration, and experiments were performed in triplicate.

The test system of the next data set is HUVEC cells. Put plainly: Endothelial cell proliferation assay (CCK-8). The settings on record: 18 hours exposure, CCK-8 assay, n = 9. In kind it is cell-based, Human. The procedure:
Anti-angiogenic drugs were screened in a concentration gradient in the HUVEC culture assay. […] Cell proliferation was assessed using a CCK-8 assay (Dojindo). Statistical analysis by two-way Anova. Error represents the standard error of the mean.
HUVEC cells were purchased from ATCC (Manassas, VA) and cultured as previously described. No further authentication was performed. Cells were seeded at 6.5 × 10^4 cells per well in 100 μL of medium per well. Drugs were diluted in prewarmed DMEM. Serial dilutions were performed from 1000–0.1 nM. The cells were left to grow for 18 hours with exposure to vehicle control (DMSO) or drugs. Experiments were done in triplicate each time. Cellular proliferation was assessed using a CCK-8 assay (Dojindo, Rockville, MD). All plates were read at 450 nm.

Data set [4] has as its system chicken embryos. The settings on record: cited from earlier work.
[5] abbreviates: 2.5 μg/embryo, global treatment.

Where two headings read alike, the source gives them in different places.

For the molecule bevacizumab, in the data set with Rat (rat, in vivo), the embryotoxicity in rats entry is given as “embryotoxicity” and the “placental transfer in rats” value is given as “dose-dependent placental transfer”. Moreover, the teratogenicity in rabbits result in the data set with Rabbit (rabbit, in vivo, iv) was “teratogenicity”.
For the molecule `CNC(=O)c1ccccc1Sc1ccc2c(/C=C/c3ccccn3)n[nH]c2c1` [Axitinib, axitinib], in the data set on Mouse (Mouse/Mice), the “Systemic exposure (AUC) compared to human exposure” value is on record as 10×. In addition, the Defects produced entry in the data set with Mouse (mouse, in vivo) is on record as “Increased post implantation loss, cleft palate malformation, variation in skeletal ossification”. Moreover, the survival rate in the data set with chicken embryos [1] (setting [5]) is reported as 55.5%; in the data set on chicken embryos [1] (5 μg/embryo, global treatment), “no embryos survived”. For the same molecule, the “Defects produced in chicken embryos” value with chicken embryos [1] (Table 1 summary) was “Embryolethality increased, limb, growth inhibition, necrosis of YSM”. Moreover, the “defects observed in treated embryos” value in the data set on chicken embryos [1] (global treatment, surviving embryos) is “most embryos exhibited necrosis within the surrounding YSM and hemorrhaging”. In addition, the “Clinical Toxicities” value in data set [2] is given as “Cardiotoxicity”. For the same molecule, the survival in data set [3] (10 μg/mL) is given as 40%; in data set [3] (50 μg/mL), 42.12%; in data set [3] (100 μg/mL) it was 38.89%.
On to `CO[C@H]1C[C@@H]2CC[C@@H](C)[C@@](O)(O2)C(=O)C(=O)N2CCCC[C@H]2C(=O)O[C@H]([C@H](C)C[C@@H]2CC[C@@H](OCCO)[C@H](OC)C2)CC(=O)[C@H](C)/C=C(\C)[C@@H](O)[C@@H](OC)C(=O)[C@H](C)C[C@H](C)/C=C/C=C/C=C/1C` [Everolimus, everolimus], for which the survival rate in the data set with chicken embryos [1] (5 μg/embryo, global treatment) was 80%; with chicken embryos [1] (10 μg/embryo, global treatment), 62.5%. Further, the “Defects produced in chicken embryos” value with chicken embryos [1] (in vivo) is on record as “Embryolethality increased, limb, spine, microopthalmia, necrosis of YSM”. For the same molecule, the “defects observed in treated embryos” value in the data set with chicken embryos [1] (in vivo) was “hemorrhaging, spinal cord twisting and necrosis in the YSM”. Further, the “Clinical Toxicities” value in data set [2] was “Stomatitis, noninfectious pneumonitis, rash, hyperglycemia and immunosuppression”. Also, the Defects produced result is “Increased resorption, pre- and post-implantation loss, decreased numbers of live fetuses, malformation and retarded skeletal development” in the data set with Rat (Rat); “Increased resorptions” in the data set with Rabbit (Rabbit). The “Systemic exposure (AUC) compared to human exposure” value in the data set on Rat (Rat) was 0.04×; with Rabbit (Rabbit) it was 1.6×. Besides, the IC50 (commonly the point on the concentration scale where inhibition reaches its midpoint) with HUVEC cells (Homo sapiens) was less than 0.01 µM. Further, the figures for the survival entry in data set [3] (10 μg/mL), in data set [3] (50 μg/mL) and in data set [3] (100 μg/mL) were “did not impact the survival”, “did not impact the survival” and 35.71%, respectively. In addition, in data set [3], the “relative potency in reducing vessel outgrowth” value is given as “least potent”.
As to `Cc1ccc(Nc2nccc(N(C)c3ccc4c(C)n(C)nc4c3)n2)cc1S(N)(=O)=O` [Pazopanib, pazopanib], the survival rate worked out at 16% in the data set on chicken embryos [1] (1 μg/embryo, global treatment); 22% in the data set with chicken embryos [1] (setting [5]); 30% in the data set on chicken embryos [1] (5 μg/embryo, global treatment). Besides, in the data set with chicken embryos [1] (Table 1 summary), the “Defects produced in chicken embryos” value is listed as “Embryolethality increased, limb, spine, necrosis of YSM”. Also, in the data set on chicken embryos [1] (in vivo), the “defects observed in treated embryos” value was “malformation of the blood vessels and necrosis in the YSM, and twisted spinal cords”. Further, the “Clinical Toxicities” value in data set [2] is “Cardiotoxicity”. Moreover, the Defects produced entry in the data set with Rat (Rat) was “Teratogenic, embryotoxic, fetotoxic & abortifacient. Cardiovascular malformations, incomplete/absent ossification, reduced fetal body weight, pre- and post-implantation embryolethality”; in the data set with Rabbit (Rabbit), “Increased post-implantation loss, abortion, 100% litter loss”. The “Systemic exposure (AUC) compared to human exposure” value is reported as 0.1× in the data set with Rat (Rat) and 0.02× with Rabbit (Rabbit). The “IC50, endothelial cell proliferation” value with HUVEC cells is recorded as “one of the highest IC50s in vitro”. Besides, the survival entry is listed as “did not affect the survival” in data set [3] (10 μg/mL), 83.33% in data set [3] (50 μg/mL) and 50% in data set [3] (100 μg/mL). The “relative potency in reducing vessel outgrowth” value in data set [3] is listed as “most potent”.
As for `O=C1c2c(F)c(F)c(F)c(F)c2C(=O)N1c1ccc(F)cc1F` [CPS49], the “Defects produced in chicken embryos” value with chicken embryos [1] (Table 1 summary) is reported as “Embryolethality, cranial hemorrhaging, micropthalmia, limb defects, spine”. In the data set with HUVEC cells, this molecule gave an IC50 of less than 0.05 µM. The “anti-angiogenic activity in chicken embryo” value in the data set with chicken embryos [4] (10 μg/embryo) is given as “potent anti-angiogenic activity”. For the same molecule, the “blood vessel outgrowth and number of forming vessels” value in data set [3] (10 μg/mL (30 μM), versus vehicle control 0.1% DMSO) was “significant reduction in both blood vessel outgrowth and the number of forming vessels”. For the same molecule, in data set [3] (10 μg/mL), the survival worked out at 50%.
For `COc1cc2c(Nc3ccc(Br)cc3F)ncnc2cc1OCC1CCN(C)CC1` [Vandetanib, vandetanib], the survival rate result is reported as “no death occurred” with chicken embryos [1] (5 μg/embryo, global treatment) and 74% in the data set on chicken embryos [1] (10 μg/embryo, global treatment). The “Defects produced in chicken embryos” value with chicken embryos [1] (Table 1 summary) is “Embryolethality increased, limb, spine, microopthalmia, necrosis of YSM”. The “defects observed in treated embryos” value in the data set on chicken embryos [1] (in vivo) was “limb reductions, micropthalmia, twisted spinal cords, and necrosis and hemorrhaging in the YSM”. The “Clinical Toxicities” value in data set [2] is reported as “Cardiotoxicity”. Besides, in the data set on Rat (Rat), the Defects produced result is given as “Increased pre- & post-implantation loss, malformations of heart vessels, skeletal variations, delayed ossification of the skull, vertebrae & sternum”. For the same molecule, the survival in data set [3] (10 μg/mL) came to 60%; in data set [3] (50 μg/mL), 15.38%; in data set [3] (100 μg/mL) it was 10%. Further, the “relative potency in reducing vessel outgrowth” value in data set [3] is given as “least potent”.
For the molecule `Nc1cccc2c1C(=O)N(C1CCC(=O)NC1=O)C2=O` (stereo not drawn) [pomalidomide], the “teratogenicity in chicken embryos” value in the data set on chicken embryos [4] (at potent anti-inflammatory doses) is on record as “not teratogenic”.
Consider `CNC(=O)c1cc(Oc2ccc(NC(=O)Nc3ccc(Cl)c(C(F)(F)F)c3)cc2)ccn1` [Sorafenib, sorafenib], for which the survival rate was found to be 54.5% in the data set on chicken embryos [1] (5 μg/embryo, global treatment) and 47% with chicken embryos [1] (10 μg/embryo, global treatment). In addition, the “Defects produced in chicken embryos” value in the data set with chicken embryos [1] (in vivo) is recorded as “Embryolethality increased, limb, growth inhibition, necrosis of YSM”. For the same molecule, in data set [2], the “Clinical Toxicities” value is on record as “Cardiotoxicity”. Also, the Defects produced result in the data set with Rat (Rat) is “Increased post implantation loss, resorptions, skeletal retardations, retarded fetal weight”; in the data set on Rabbit (Rabbit), “Increased post implantation loss, resorptions, skeletal retardations, retarded fetal weight”. For the same molecule, the “Systemic exposure (AUC) compared to human exposure” value with Rat (Rat) and in the data set with Rabbit (Rabbit) was 0.008× in each case. The same molecule displayed a half-maximal inhibitory concentration (IC50) with HUVEC cells (Homo sapiens) of less than 0.05 µM. The results for the survival in data set [3] (10 μg/mL), in data set [3] (50 μg/mL) and in data set [3] (100 μg/mL) were 18.18%, 15.38% and “No embryos survived”, respectively. Besides, the “relative potency in reducing vessel outgrowth” value in data set [3] is given as “most potent”.
`CCN(CC)CCNC(=O)c1c(C)[nH]c(/C=C2\C(=O)Nc3ccc(F)cc32)c1C` [Sunitinib, sunitinib] returned a survival rate with chicken embryos [1] (5 μg/embryo, global treatment) of 72%. The “Defects produced in chicken embryos” value in the data set on chicken embryos [1] (in vivo) was “Embryolethality increased, limb, spinal, microopthalmia, growth inhibition, necrosis of YSM”. For the same molecule, in the data set with chicken embryos [1] (in vivo), the “defects observed in treated embryos” value is “in most embryos limb defects were observed, some also exhibited microopthalmia and spinal cord twisting”. Besides, the “Clinical Toxicities” value in data set [2] is reported as “Cardiotoxicity”. The “Systemic exposure (AUC) compared to human exposure” value in the data set on Rat (Rat) was 5.5×; in the data set with Rabbit (Rabbit), 0.3×. In addition, the Defects produced entry is recorded as “Embryolethality increased, fetal skeletal malformations (ribs/vertebrae)” in the data set with Rat (rat, in vivo) and “Increased embryolethality, cleft palate malformations” in the data set on Rabbit (rabbit, in vivo). In the data set on HUVEC cells (Homo sapiens), this molecule registered a half-maximal inhibitory concentration (IC50) of less than 0.01 µM. Moreover, the survival amounted to 61.90% in data set [3] (10 μg/mL), 21.05% in data set [3] (50 μg/mL) and 0% in data set [3] (100 μg/mL). Also, the “relative potency in reducing vessel outgrowth” value in data set [3] was “most potent”.
